Results reported in patent publication US11660331B2, “Heroin vaccine” (THE SCRIPPS RESEARCH INSTITUTE, priority 2017, dated 2023).

System: anti-heroin polyclonal antibodies from Group G6
Assay: SPR competitive binding assay, Her-BSA-loaded sensor chip (Biacore 3000)
Parameters: species or system mouse
Conditions: sera from Group G6 (vaccine stored as liquid at RT for 30 days)

CN1CC[C@]23c4c5ccc(O)c4O[C@H]2[C@@H](O)C=C[C@H]3[C@H]1C5 [morphine]
cross-reactivity to the polyclonal antibodies: low cross-reactivity
